We go through three compounds from US20230339866A1, “Quinazoline compounds and the use thereof in the treatment of cancer” (TROBIO THERAPEUTICS PTY LTD, priority 2020, published 2023).

Experiment [1] concerns A2780 ovarian cancer cells. The note with it: Bliss score; for Paclitaxel Max. Synergy / Paclitaxel Total Synergy: combination with paclitaxel; for Paclitaxel Max. Synergy / Vinorelbine Max. Synergy: highest individual score of 6×6 matrix; for Paclitaxel Total Synergy / Vinorelbine Total Synergy: sum over matrix; for Vinorelbine Max. Synergy / Vinorelbine Total Synergy: combination with vinorelbine.
Description: (§3) The A2780 cell line was maintained as a monolayer in Dulbeccos Modified Eagles medium (DMEM) supplemented with 10% foetal bovine serum (FBS) and grown at 37° C. in a humidified atmosphere with 5% CO2. […] Each screening plate contained one 6×6 dose matrix for two drugs using two-fold dilution steps. […] Viability was measured after 72 hours using a standard MTS assay.
(§4) Synergistic drug interactions were determined for each pairwise drug combination by applying the Bliss-independence model that assumes independence of drug mechanisms.
(§5) The Bliss additivism model was used to calculate a predicted combined response C to two single agents with responses A and B (using GI values), as follows:
(§6) The final score for any combination was reported as the difference between the value predicted by the additive model and the experimentally observed value, normalised to 100. Using GI values the maximum possible synergy score is 100, with 0 indicating no synergy and negative indicating possible antagonism. Scores were also reported as a “Max synergy” score, which is the highest individual synergy score for each combination matrix, and a “Total synergy” score, which was obtained by summation of each individual synergy score for the matrix.

In another experiment the test system is Caco-2 (colorectal). As to the kind of experiment: Anti-proliferative activity against Caco-2 colorectal cancer cells. It is filed as cell-based. The note with it: Homo sapiens, 72 h exposure. The method, then: (§1) The ability of compounds of the invention to inhibit the proliferation of cancer cells representative of non-small cell lung cancer and ovarian cancer (Table 2), pancreatic cancer, colorectal cancer and prostate cancer (Table 3) was assessed. Briefly, a predetermined number of cells as calculated from cell growth assays for each of the cell lines employed were seeded into their respective culture medium (using ATCC culture parameters—http://www.atcc.org) and cultured for 24 h at 37° C. and 5% CO2 in 96-well culture plates. Once attached, each cell line was then exposed to various concentrations of each respective analogue (30, 10, 3, 1, 0.3 and 0.1 μM), cultured for a further 72 h and exposed to Cell-Titre luminescent reagent (100 μL/well) for a further 30 min. Luminescence was captured using an EnVision multilabel reader and the data for each analogue concentration compared against no treatment control. Cell viability was normalised to control (vehicle alone) and dose response curves, and half maximal effective concentration (EC50) values were determined using Graph Pad Prism 6 (nonlinear regression sigmoidal dose-response variable slope).

Another experiment concerns A2780 (ovarian). As to the kind of experiment: Anti-proliferative activity (Cell-Titre luminescence) against A2780 ovarian cancer cells. The class given is cell-based. As to conditions: Homo sapiens, A2780, 72 h, 72 h exposure, Cell-Titre luminescent reagent. In outline:
(§2)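 Cells grown 24 h at 37 °C, 5% CO2, then exposed 72 h to compound at 30, 10, 3, 1, 0.3 and 0.1 μM. Viability by Cell-Titre luminescence (30 min), normalised to vehicle; EC50 from variable-slope sigmoidal nonlinear regression.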

Experiment [2] has as its target T1, Tpm3.1 (Homo sapiens, UniProt P06753). The experiment in a line: Circular dichroism spectroscopy, thermal unfolding of Tpm3.1 peptides. It is filed as binding. Also noted: N-terminus (residues 2-80 with an initial Ala-Gly dipeptide to mimic N-terminal acetylation) of Tpm3.1; Peptides corresponding to the C-terminus (residues 139-248) and N-terminus; made in house. The note with it: test compound 100 μM, peptide 20 μM, CD at 222 nm. The method, then: The interactions of compounds 11, 13, 32 and 92 with the N-terminus and overlap region of Tpm3.1 were measured using circular dichroism (CD) spectroscopy (see FIG. 1). Peptides corresponding to the C-terminus (residues 139-248) and N-terminus (residues 2-80 with an initial Ala-Gly dipeptide to mimic N-terminal acetylation) of Tpm3.1 were prepared as described in the literature (Janco et al., 2019). CD spectra and thermal unfolding isotherms of N_82AA_Tpm3.1 and C_109AA_Tpm3.1 peptides were acquired on a Chirascan Plus CD Spectrometer (Applied Photophysics Limited, U.K.) in stoppered 0.5 mm cuvettes (48/Q/0.5; Starna Scientific Ltd.). Proteins were dialyzed O/N against 10 mM NaH2 PO4, 150 mM NaCl, 75 μM TCEP (added prior to experiment), 1% (v/v) acetonitrile pH 7 buffer. Final concentration of peptides was 20 μM. Tpm samples containing the test compound (100 μM) were incubated at 37° C. O/N. CD spectra were measured from 195 to 260 nm with a 1 nm step size and a […], taking 3 to 4 averages at 37° C. The thermal unfolding was carried at 222 nm over the range 20-85° C. at the rate of 1° C./min. Sample was cooled down to the initial temperature and heating procedure was repeated 2 to 3 times. To obtain information of the major thermal transitions from individual isotherms, data were further smoothed by the Savitzky-Golay method (5-point window), differentiated and then fitted to multiple Gaussian peaks as described previously (Janco et al., 2012) (FIG. 2).
Target sequence in this assay (P06753 with tags, fused parts or gaps isoform P06753-2): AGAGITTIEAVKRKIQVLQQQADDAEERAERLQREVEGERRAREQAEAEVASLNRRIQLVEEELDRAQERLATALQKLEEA

Experiment [3] has as its target T1, Tpm3.1. As to the kind of experiment: Actin depolymerisation assay. It is filed as biochemical. The note with it: 50 μmol/L test compound, pyrene-labelled F-actin, 160 minutes. The method, then:
A 12 μmol/L solution of labelled F-actin was prepared by polymerising the monomeric actin (35% pyrene labelled Rabbit Muscle (Cytoskeleton Inc)) into filaments in the presence of buffer T (100 mmol/L NaCl; 10 mmol/L Tris HCl pH 7.5; 2 mmol/L MgCl2; 1 mmol/L EGTA; 0.5 mmol/L DTT) with added ATP (0.2 mmol/L), for 1 hour in the dark at room temperature. Tpm3.1 (10 μmol/L) was reduced in buffer T containing 1 mmol/L DTT at 70° C. for 6 minutes and centrifuged at 60,000 rpm for 30 minutes to remove nonreduced dimers. […] Duplicate samples were diluted 12-fold using an F-actin polymerisation buffer (100 mmol/L NaCl; 10 mmol/L Tris HCl pH 7; 2 mmol/L MgCl2; 1 mmol/L EGTA; 0.2 mmol/L ATP; 1 mmol/L DTT) and the depolymerisation rates of F-actin alone, F-actin/Tpm3.1, and the F-actin/Tpm3.1/test compound filament complex were measured using a Costar 3915 fluorescence plate reader (407 nm) at 36-second intervals for 160 minutes at room temperature. Data were normalized to the initial fluorescence value and polymerisation curves of duplicate samples were fitted to a two-phase exponential decay model using OriginPro 9.1 (OriginLab) (FIG. 3A). Percent polymerisation was determined at t160 as a function of to (100%) (FIG. 3B, p<0.0001).
Target sequence in this assay (P06753 1-248 isoform P06753-2): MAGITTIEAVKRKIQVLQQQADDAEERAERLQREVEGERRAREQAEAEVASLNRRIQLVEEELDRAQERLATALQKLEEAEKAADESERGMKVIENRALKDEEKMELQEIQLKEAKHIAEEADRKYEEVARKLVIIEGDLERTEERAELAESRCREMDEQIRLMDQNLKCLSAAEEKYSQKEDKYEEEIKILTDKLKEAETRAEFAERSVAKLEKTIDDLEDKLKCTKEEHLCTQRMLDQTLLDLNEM

In experiment [4] the test system is Tpm3.1-containing actin microfilaments. As to the kind of experiment: Disruption of Tpm3.1-containing actin microfilaments in SK-N-SH cells (imaging and quantitation). It is filed as cell-based. As to conditions: SK-N-SH cells expressing Tpm3.1-mCherry, 24 hours, two concentrations. How it is done:
The ability of compounds 57, 87 and 92 to disrupt Tpm3.1-containing actin microfilaments was investigated in SK-N-SH neuroblastoma cells that express Tpm3.1 labelled with the mCherry fluorophore. Cells were seeded at 3×10^4 cells per well in a volume of 1000 μL complete media onto a 12 well plate containing 13 mm coverslips and left to plate down for 24 hours prior to treatment. Cells were then treated with DMSO and two concentrations of the test compounds. 24 hours post-treatment, cells were fixed with 16% paraformaldehyde (PBS) and stained with 488-Atto-Phalloidin to visualise the actin filament bundles. Single plane images were obtained using the Olympus IX83 epi-fluorescence microscope. Ten fields of view were collected for both Tpm3.1 mCherry fluorophore (FIG. 4) and 488-Atto-Phalloidin (FIG. 5) with each treatment condition.
Quantitation of either Tpm3.1 mCherry filaments or 488-Atto-Phalloidin filaments was performed using ImageJ 1.52p software (ImageJ, NIH). The mean pixel intensity from a cell was measured by using a line across the entire cell cytoplasmic area above or below the nuclear region. The line was made to cross the filament bundles at a […] for the measurement rather than run along a single filament. A total of n=100 cells were measured from ten fields of view. Cells with pixel intensities that were more than twice the average intensity in the field were excluded from the measurement. The mean pixel intensity from n=100 cells was imported into Microsoft Excel to obtain the average intensity of either Tpm3.1 mCherry filaments or 488-Atto-Phalloidin filaments from each treatment condition. Values were normalised as a percent of the 0 μM control in order to generate a bar graph.

Experiment [5] concerns A2780 ovarian cancer cells. As to the kind of experiment: cells. As to conditions: Homo sapiens, A2780, 72 h, read-out: IC50 values used for the dose matrix (compounds).
Description: as §3, §4, §5, §6
Another experiment concerns PC3 (prostate). The experiment in a line: Anti-proliferative activity against PC3 prostate cancer cells. It is filed as cell-based. As to conditions: 72 h exposure. How it is done:
as §1

Experiment [6] relates to SK-N-SH neuroblastoma cells. The experiment in a line: Anti-proliferative activity (MTS assay) against SK-N-SH neuroblastoma cells. The class given is cell-based. The note with it: Homo sapiens, SK-N-SH, 72 h. How it is done: The ability of compounds of the disclosure to inhibit the proliferation of SK-N-SH neuroblastoma cells was also assessed. […] Cell viability was normalised to control (vehicle alone) and dose response curves and IC50 values (Table 4) were determined using Graph Pad Prism 6.

The subject of the next experiment is A549 (NSCLC). The experiment in a line: Anti-proliferative activity (Cell-Titre luminescence) against A549 non-small cell lung cancer cells. The note with it: Homo sapiens, A549, 72 h, 72 h exposure, Cell-Titre luminescent reagent. The class given is cell-based. In outline:
as §2

A further experiment deals with MIA PaCa-2 (pancreatic). The experiment in a line: Anti-proliferative activity against MIA PaCa-2 pancreatic cancer cells. It is filed as cell-based. The note with it: Homo sapiens, 72 h exposure. The method, then: as §1

A word on the IC50: it is the midpoint of a concentration-inhibition curve. As to `OCCCNc1nc(NCCc2cccc(C(F)(F)F)c2)nc2ccccc12` [Compound 92, 3-((2-((3-(trifluoromethyl)phenethyl)amino)quinazolin-4-yl)amino)propan-1-ol], the “Paclitaxel Max. Synergy” value in [1] amounted to 17.97. In addition, the “Paclitaxel Total Synergy” value in [1] amounted to 100.06. In addition, the “Vinorelbine Max. Synergy” value in experiment [1] was 27.55. Besides, the “Vinorelbine Total Synergy” value in experiment [1] is 204.68. Further, the IC50 with Caco-2 (colorectal) was determined as 2.48 µM; with A2780 (ovarian), 2.22 µM; in experiment [5] it was 5000 nM; in the experiment on PC3 (prostate), 4.49 µM; in experiment [6], 2 µM; with A549 (NSCLC) it was 1.3 µM. Further, the IC50 in the experiment on MIA PaCa-2 (pancreatic) stood at 3.19 µM. Further, at Tpm3.1 [2], the “Effect on melting profile of the Tpm3.1 N-terminal peptide construct” value is reported as “alter the melting profile”. Besides, at Tpm3.1 [2], the “Effect on stability of the Tpm3.1 N-terminal peptide” value is listed as “decrease the stability”. Also, the “Inhibition of Tpm3.1 protection of actin filaments from depolymerisation” value at Tpm3.1 [3] is “inhibit the ability of Tpm3.1 to protect actin filaments from depolymerisation”. Further, in [4], the “Disruption of Tpm3.1-containing actin microfilaments” value (shortened to “Disruption”) was “disrupt Tpm3.1-containing actin microfilaments in a dose-dependent manner”.

Take `CCc1ccc(CCNc2nc(NCCN3CCN(C)CC3)c3ccccc3n2)cc1` [Compound 57, N^2-(4-ethylphenethyl)-N^4-(2-(4-methylpiperazin-1-yl)ethyl)quinazoline-2,4-diamine]: the IC50 is 1.12 µM in the experiment with Caco-2 (colorectal); 0.655 µM with A2780 (ovarian); 1.48 µM in the experiment with PC3 (prostate); 1.11 µM in [6]; 1.53 µM with A549 (NSCLC); 1.02 µM in the experiment on MIA PaCa-2 (pancreatic). For the same compound, the “Disruption” value in [4] is recorded as “disrupt Tpm3.1-containing actin microfilaments in a dose-dependent manner”.

Turning to `Fc1cccc(CCNc2nc(NCCc3c[nH]cn3)c3ccccc3n2)c1` [Compound 87, N^4-(2-(1H-imidazol-4-yl)ethyl)-N^2-(3-fluorophenethyl)quinazoline-2,4-diamine], in experiment [1], the “Paclitaxel Max. Synergy” value came out at 9.54. For the same compound, in [1], the “Paclitaxel Total Synergy” value turned out to be 28.53. The “Vinorelbine Max. Synergy” value in experiment [1] is 24.46. Moreover, in experiment [1], the “Vinorelbine Total Synergy” value is 160.51. The IC50 came to 4.33 µM in the experiment with Caco-2 (colorectal); 2.6 µM with A2780 (ovarian); 3000 nM in experiment [5]; 4.12 µM in the experiment on PC3 (prostate); 1.38 µM in experiment [6]; 2.36 µM in the experiment on A549 (NSCLC). For the same compound, the IC50 with MIA PaCa-2 (pancreatic) turned out to be 2.75 µM. Moreover, in [4], the “Disruption” value is “disrupt Tpm3.1-containing actin microfilaments in a dose-dependent manner”.
